Laboratory results as given in the supplement of paper PMC11962398.

Assays:
BI-2493 [1] = compound: T1, C[C@H]1CNCCN1c1nccc(-c2noc3c2CCC[C@@]32CCCc3sc(N)c(C#N)c32)n1 [BI-2493]; settings: 5 days
Method: (§1)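 PRISM pooled barcoded cancer cell line viability screen (Broad Institute) with BI-2493 at 8 doses in threefold dilutions from 0.00457 to 10 µmol/L, 5-day treatment; curves fitted per cell line. IC50 is undefined (placeholder) for resistant lines. AUC is capped at 1, and sensitivity is reported as 1 − AUC.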

BI-2493 [2] = compound: T1, BI-2493; experiment: 1 - AUC of viability dose-response curve (sensitivity) (fraction); higher = more sensitive; settings: 5 days
Method: as §1

| Test System | IC50 of cell viability (BI-2493 [1]) | 1 - AUC of viability dose-response curve (BI-2493 [2]) |
| --- | --- | --- |
| 8MGBA_CENTRAL_NERVOUS_SYSTEM | 6.11 µM | 0.0867 |
| 22RV1_PROSTATE | 5.65 µM | 0.111 |
| 42MGBA_CENTRAL_NERVOUS_SYSTEM | > 10 µM | 0.073 |
| 93T449_SOFT_TISSUE | 9.31 µM | 0.0121 |
| 94T778_SOFT_TISSUE | 5.6 µM | 0.112 |
| 143B_BONE | 8.98 µM | 0.0198 |
| 253JBV_URINARY_TRACT | 6.75 µM | 0.0713 |
| 253J_URINARY_TRACT | 4.76 µM | 0.0834 |
| 639V_URINARY_TRACT | > 10 µM | 0.116 |
| 647V_URINARY_TRACT | 7.05 µM | 0.0938 |
| 697_HAEMATOPOIETIC_AND_LYMPHOID_TISSUE | 8.3 µM | 0.0309 |
| 769P_KIDNEY | 6.88 µM | 0.0662 |
| 786O_KIDNEY | 2.69 µM | 0.241 |
| 921_UVEA | 4.34 µM | 0.13 |
| 1618K_TESTIS | 2.47 µM | 0.206 |
| 1777NRPMET_TESTIS | 9.43 µM | 0.0116 |
| 5637_URINARY_TRACT | 5.2 µM | 0.225 |
| 8305C_THYROID | 9.71 µM | 0.00549 |
| 8505C_THYROID | 9.69 µM | 0.00728 |
| 9505BIK_PANCREAS | 1.57 µM | 0.321 |
| 2313287_STOMACH | 1.34 µM | 0.233 |
| A3KAW_HAEMATOPOIETIC_AND_LYMPHOID_TISSUE | 3.54 µM | 0.191 |
| A101D_SKIN | 8.09 µM | 0.0656 |
| A172_CENTRAL_NERVOUS_SYSTEM | 4.33 µM | 0.178 |

| Test System | IC50 of cell viability (BI-2493 [1]) | 1 - AUC of viability dose-response curve (BI-2493 [2]) |
| --- | --- | --- |
| A204_SOFT_TISSUE | 4.24 µM | 0.163 |
| A253_SALIVARY_GLAND | 4.12 µM | 0.197 |
| A375_SKIN | 9.23 µM | 0.016 |
| A388_SKIN | > 10 µM | 0.0151 |
| A427_LUNG | 0.735 µM | 0.349 |
| A498_KIDNEY | 5.88 µM | 0.113 |
| A549_LUNG | 2.17 µM | 0.207 |
| A673_BONE | 9.04 µM | 0.0226 |
| A704_KIDNEY | 9.08 µM | 0.0519 |
| A1207_CENTRAL_NERVOUS_SYSTEM | 7.21 µM | 0.179 |
| A2058_SKIN | 5.91 µM | 0.0892 |
| A2780_OVARY | 5.15 µM | 0.103 |
| ABC1_LUNG | 7.12 µM | 0.0666 |
| ACCMESO1_PLEURA | 9.66 µM | 0.00668 |
| ACHN_KIDNEY | 6.46 µM | 0.133 |
| AGS_STOMACH | 0.844 µM | 0.313 |
| ALLSIL_HAEMATOPOIETIC_AND_LYMPHOID_TISSUE | 9.13 µM | 0.033 |
| AM38_CENTRAL_NERVOUS_SYSTEM | 4.3 µM | 0.101 |
| AMO1_HAEMATOPOIETIC_AND_LYMPHOID_TISSUE | 5.6 µM | 0.088 |
| AN3CA_ENDOMETRIUM | 4.74 µM | 0.142 |
| ANGMCSS_CENTRAL_NERVOUS_SYSTEM | > 10 µM | 0.0225 |
| ASPC1_PANCREAS | 2.11 µM | 0.32 |
| AU565_BREAST | 6.01 µM | 0.0935 |
| BC3C_URINARY_TRACT | 5.1 µM | 0.193 |

| Test System | IC50 of cell viability (BI-2493 [1]) | 1 - AUC of viability dose-response curve (BI-2493 [2]) |
| --- | --- | --- |
| BCPAP_THYROID | 6.5 µM | 0.0703 |
| BDCM_HAEMATOPOIETIC_AND_LYMPHOID_TISSUE | > 10 µM | 0.0903 |
| BECKER_CENTRAL_NERVOUS_SYSTEM | 9.55 µM | 0.00973 |
| BEN_LUNG | 1.62 µM | 0.264 |
| BFTC905_URINARY_TRACT | 6.41 µM | 0.114 |
| BFTC909_KIDNEY | 6.33 µM | 0.0855 |
| BHT101_THYROID | 7.97 µM | 0.0404 |
| BHY_UPPER_AERODIGESTIVE_TRACT | 5.93 µM | 0.0642 |
| BICR6_UPPER_AERODIGESTIVE_TRACT | 4 µM | 0.178 |
| BICR16_UPPER_AERODIGESTIVE_TRACT | 5.24 µM | 0.263 |
| BICR18_UPPER_AERODIGESTIVE_TRACT | 4.16 µM | 0.147 |
| BICR22_UPPER_AERODIGESTIVE_TRACT | 4.66 µM | 0.137 |
| BICR31_UPPER_AERODIGESTIVE_TRACT | 6.97 µM | 0.0764 |
| BICR56_UPPER_AERODIGESTIVE_TRACT | 4.72 µM | 0.152 |
| BICR78_UPPER_AERODIGESTIVE_TRACT | 5.51 µM | 0.173 |
| BL2_HAEMATOPOIETIC_AND_LYMPHOID_TISSUE | 4.45 µM | 0.183 |
| BLUE1_HAEMATOPOIETIC_AND_LYMPHOID_TISSUE | 3.33 µM | 0.129 |
| BOKU_CERVIX | > 10 µM | 0.119 |
| BONNA12_HAEMATOPOIETIC_AND_LYMPHOID_TISSUE | > 10 µM | 0.117 |
| BT12_SOFT_TISSUE | 5.51 µM | 0.17 |
| BT16_SOFT_TISSUE | > 10 µM | 0.189 |
| BT474_BREAST | 9.18 µM | 0.0542 |
| BT549_BREAST | 8.89 µM | 0.0828 |
| BV173_HAEMATOPOIETIC_AND_LYMPHOID_TISSUE | 1.67 µM | 0.344 |

| Test System | IC50 of cell viability (BI-2493 [1]) | 1 - AUC of viability dose-response curve (BI-2493 [2]) |
| --- | --- | --- |
| BXPC3_PANCREAS | > 10 µM | 0.0507 |
| C4I_CERVIX | 3.49 µM | 0.154 |
| C32_SKIN | 9.25 µM | 0.0594 |
| C33A_CERVIX | 3.53 µM | 0.131 |
| C75_LARGE_INTESTINE | 9.28 µM | 0.22 |
| C80_LARGE_INTESTINE | 0.477 µM | 0.3 |
| C8166_HAEMATOPOIETIC_AND_LYMPHOID_TISSUE | 9.65 µM | 0.00732 |
| CADOES1_BONE | 9.64 µM | 0.00999 |
| CAKI1_KIDNEY | 9.29 µM | 0.0185 |
| CAL12T_LUNG | 4.93 µM | 0.201 |
| CAL27_UPPER_AERODIGESTIVE_TRACT | 3.79 µM | 0.241 |
| CAL29_URINARY_TRACT | 2.5 µM | 0.264 |
| CAL33_UPPER_AERODIGESTIVE_TRACT | 6.54 µM | 0.142 |
| CAL51_BREAST | 9.13 µM | 0.0624 |
| CAL54_KIDNEY | > 10 µM | 0.00233 |
| CAL62_THYROID | > 10 µM | 0.0045 |
| CAL72_BONE | > 10 µM | 0.176 |
| CAL78_BONE | 7.37 µM | 0.0497 |
| CAL120_BREAST | > 10 µM | 0.0763 |
| CAL148_BREAST | > 10 µM | < 0 |
| CALU1_LUNG | 5.25 µM | 0.0917 |
| CALU6_LUNG | 9.77 µM | 0.00583 |
| CAMA1_BREAST | > 10 µM | 0.00667 |
